Assay results: US20260060250A1, “HERBICIDAL PYRIDONE DERIVATIVES” (SYNGENTA CROP PROTECTION AG, priority 2022, published 2026)

Key:
Type in all cases: in vivo
Settings in all cases: evaluated after 13 days
[1] = system: Amaranthus palmeri (AMAPA); assay: Pre-emergence Test (Table B1); design: key: 5=81-100%; 4=61-80%; 3=41-60%; 2=21-40%; 1=0-20%; 0=inactive
[2] = system: Setaria faberi (SETFA); assay: Pre-emergence Test (Table B1); design: key: 5=81-100%; 4=61-80%; 3=41-60%; 2=21-40%; 1=0-20%; 0=inactive
[3] = system: Echinochloa crus-galli (ECHCG); assay: Pre-emergence Test (Table B1); design: key: 5=81-100%; 4=61-80%; 3=41-60%; 2=21-40%; 1=0-20%; 0=inactive
[4] = system: Amaranthus retroflexus (AMARE); assay: Pre-emergence Test (Table B1)
[5] = system: Zea mays (ZEAMX); assay: Pre-emergence Test (Table B1); design: key: 5=81-100%; 4=61-80%; 3=41-60%; 2=21-40%; 1=0-20%; 0=inactive
[6] = system: Ipomoea hederacea (IPOHE); assay: Pre-emergence Test (Table B1); design: key: 5=81-100%; 4=61-80%; 3=41-60%; 2=21-40%; 1=0-20%; 0=inactive
[7] = system: Amaranthus palmeri (AMAPA); assay: Post-emergence Test (Table B2)
Summary of the method: (§1)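 Seed-sown pots receive a 1000 g/ha spray (other rates where stated) in 50:50 acetone/water with 0.5% Tween 20. Glasshouse conditions are 24/16 °C day/night with 14 h light. Evaluation is by percentage damage at 13 days.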

[8] = system: Amaranthus retroflexus (AMARE); assay: Post-emergence Test (Table B2)
Summary of the method: as §1

[9] = system: Setaria faberi (SETFA); assay: Post-emergence Test (Table B2)
Summary of the method: as §1

[10] = system: Echinochloa crus-galli (ECHCG); assay: Post-emergence Test (Table B2)
Summary of the method: as §1

[11] = system: Ipomoea hederacea (IPOHE); assay: Post-emergence Test (Table B2)
Summary of the method: as §1

[12] = system: Zea mays (ZEAMX); assay: Post-emergence Test (Table B2)
Summary of the method: as §1

[13] = lower rate of 250 g per hectare

Row | Structure (SMILES) | percentage damage caused to the plant, AMAPA [1, 13] | percentage damage caused to the plant, SETFA [2, 13] | percentage damage caused to the plant, ECHCG [3, 13] | percentage damage caused to the plant, AMARE [4, 13] | percentage damage caused to the plant, ZEAMX [5, 13] | percentage damage caused to the plant, IPOHE [6, 13] | percentage damage caused to the plant, AMAPA [7, 13] | percentage damage caused to the plant, AMARE [8, 13] | percentage damage caused to the plant, SETFA [9, 13] | percentage damage caused to the plant, ECHCG [10, 13] | percentage damage caused to the plant, IPOHE [11, 13] | percentage damage caused to the plant, ZEAMX [12, 13] | also measured
1 | CCn1c(C)c(-c2cc(C(=O)OC(C)COC)c(Cl)cc2F)c(=O)c(C(=O)O)c1-c1ccc(Cl)c(Cl)c1 (stereo not drawn) [Compound 26, 5-[4-chloro-2-fluoro-5-(2-methoxy-1-methyl-ethoxy)carbonyl-phenyl]-2-(3,4-dichlorophenyl)-1-ethyl-6-methyl-4-oxo-pyridine-3-carboxylic acid] | – | – | – | – | – | – | – | – | – | – | – | – | percentage damage caused to the plant, AMAPA ([1]; 1000 g/ha): 5 (5=81-100%); percentage damage caused to the plant, SETFA ([2]; 1000 g/ha): 4 (4=61-80%); percentage damage caused to the plant, ECHCG ([3]; 1000 g/ha): 4 (4=61-80%); percentage damage caused to the plant, AMARE ([4]; 1000 g/ha): 5 (5=81-100%); percentage damage caused to the plant, ZEAMX ([5]; 1000 g/ha): 0; percentage damage caused to the plant, IPOHE ([6]; 1000 g/ha): 3 (3=41-60%); percentage damage caused to the plant, AMAPA ([7]; 1000 g/ha): 5 (5=81-100%); percentage damage caused to the plant, AMARE ([8]; 1000 g/ha): 5 (5=81-100%); percentage damage caused to the plant, SETFA ([9]; 1000 g/ha): 5 (5=81-100%); percentage damage caused to the plant, ECHCG ([10]; 1000 g/ha): 5 (5=81-100%); percentage damage caused to the plant, IPOHE ([11]; 1000 g/ha): 5 (5=81-100%); percentage damage caused to the plant, ZEAMX ([12]; 1000 g/ha): 5 (5=81-100%)
2 | CCn1c(C)c(-c2cc(C(=O)OC3CC3)c(Cl)cc2F)c(=O)c(C(=O)O)c1-c1ccc(C#N)c(F)c1 [Compound 39, 5-[4-chloro-5-(cyclopropoxycarbonyl)-2-fluoro-phenyl]-2-(4-cyano-3-fluoro-phenyl)-1-ethyl-6-methyl-4-oxo-pyridine-3-carboxylic acid] | 5 (5=81-100%) | 0 | 0 | 5 (5=81-100%) | 0 | 4 (4=61-80%) | 5 (5=81-100%) | 5 (5=81-100%) | 5 (5=81-100%) | 4 (4=61-80%) | 4 (4=61-80%) | 5 (5=81-100%) | –
3 | CCn1c(C)c(-c2cc(C(=O)OC(C)CC(=O)OC)c(Cl)cc2F)c(=O)c(C(=O)O)c1-c1ccc(Cl)c(Cl)c1 (stereo not drawn) [Compound 42, 5-[4-chloro-2-fluoro-5-(3-methoxy-1-methyl-3-oxo-propoxy)carbonyl-phenyl]-2-(3,4-dichlorophenyl)-1-ethyl-6-methyl-4-oxo-pyridine-3-carboxylic acid] | 1 (1=0-20%) | 0 | 0 | 3 (3=41-60%) | 1 (1=0-20%) | 0 | 4 (4=61-80%) | 5 (5=81-100%) | 2 (2=21-40%) | 2 (2=21-40%) | 3 (3=41-60%) | 3 (3=41-60%) | –
4 | C#CCC(C)OC(=O)c1cc(-c2c(C)n(CC)c(-c3ccc(Cl)c(Cl)c3)c(C(=O)O)c2=O)c(F)cc1Cl (stereo not drawn) [Compound 43, 5-[4-chloro-2-fluoro-5-(1-methylbut-3-ynoxycarbonyl)phenyl]-2-(3,4-dichlorophenyl)-1-ethyl-6-methyl-4-oxo-pyridine-3-carboxylic acid] | 0 | 0 | 0 | 2 (2=21-40%) | 0 | 0 | 5 (5=81-100%) | 5 (5=81-100%) | 3 (3=41-60%) | 4 (4=61-80%) | 2 (2=21-40%) | 4 (4=61-80%) | –
5 | CCn1c(C)c(-c2cc(C(=O)OC(C)C#N)c(Cl)cc2F)c(=O)c(C(=O)O)c1-c1ccc(Cl)c(Cl)c1 (stereo not drawn) [Compound 44, 5-[4-chloro-5-(1-cyanoethoxycarbonyl)-2-fluoro-phenyl]-2-(3,4-dichlorophenyl)-1-ethyl-6-methyl-4-oxo-pyridine-3-carboxylic acid] | 5 (5=81-100%) | 0 | 0 | 5 (5=81-100%) | 0 | 2 (2=21-40%) | 5 (5=81-100%) | 5 (5=81-100%) | 3 (3=41-60%) | 3 (3=41-60%) | 4 (4=61-80%) | 2 (2=21-40%) | –
6 | CCn1c(C)c(-c2cc(C(=O)OC3CC3)c(Cl)cc2F)c(=O)c(C(=O)O)c1-c1ccc(C#N)c(Cl)c1 [Compound 46, 2-(3-chloro-4-cyano-phenyl)-5-[4-chloro-5-(cyclopropoxycarbonyl)-2-fluoro-phenyl]-1-ethyl-6-methyl-4-oxo-pyridine-3-carboxylic acid] | 5 (5=81-100%) | 1 (1=0-20%) | 0 | 5 (5=81-100%) | 0 | 2 (2=21-40%) | 5 (5=81-100%) | 5 (5=81-100%) | 5 (5=81-100%) | 5 (5=81-100%) | 4 (4=61-80%) | 5 (5=81-100%) | –
